Columns and labels:
[1] = molecular target: T1, recombinant human ALK5 (TGF-βR1) protein (Homo sapiens, UniProt P36897); assay: Biochemical ALK5 (TGF-βR1) assay to measure pKi (LANCE Ultra ULight kinase assay); details: apparent pKi, converted from pIC50 by Cheng-Prusoff
T1 construct: purchased Life Technologies PR9075A
T1 sequence (P36897 34-503): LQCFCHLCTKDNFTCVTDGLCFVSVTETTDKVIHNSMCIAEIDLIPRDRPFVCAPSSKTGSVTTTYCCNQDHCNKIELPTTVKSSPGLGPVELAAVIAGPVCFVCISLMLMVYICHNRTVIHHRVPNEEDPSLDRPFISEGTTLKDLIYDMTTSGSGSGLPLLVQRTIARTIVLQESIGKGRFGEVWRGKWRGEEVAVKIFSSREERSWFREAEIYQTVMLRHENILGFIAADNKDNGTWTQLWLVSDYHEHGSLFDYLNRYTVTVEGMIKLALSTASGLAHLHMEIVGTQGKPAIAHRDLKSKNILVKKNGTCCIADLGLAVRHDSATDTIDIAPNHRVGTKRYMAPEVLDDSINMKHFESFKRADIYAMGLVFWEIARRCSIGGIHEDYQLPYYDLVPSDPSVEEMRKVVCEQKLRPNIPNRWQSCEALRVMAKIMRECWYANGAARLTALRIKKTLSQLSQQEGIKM
Summary of the method: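 Dose-response series of each compound were preincubated with the kinase for 60 minutes at room temperature. Phosphorylation proceeded for 60 minutes at 37 °C after ATP addition, was quenched with EDTA, and was detected with a europium anti-phospho-Thr1342 antibody by TR-FRET; pKi was calculated from pIC50.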

[2] = tested on: TGF-β-stimulated SMAD3 phosphorylation in BEAS-2B cells; assay: Cellular ALK5 potency assay, inhibition of TGF-β stimulated pSMAD3 formation in BEAS-2B cells; format: cell-based; details: Homo sapiens, pSMAD3, TGF-β 10 ng/mL, read-out: BEAS2B pIC50 (converted)
Summary of the method: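 Potency is expressed as pIC50, based on dose-dependent reduction of TGF-β-induced pSMAD3 AlphaLISA signal relative to stimulated cells without compound. BEAS-2B cells received compound 1 h before a 30 min, 10 ng/mL TGF-β challenge.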

Row | Ki [1] | SMILES | IC50 [2]
1 | ≤ 0.0316 nM | Cc1cccc(-c2nccc(Nc3ccnc(Nc4ccc(C5=CCNC5)cc4)n3)n2)n1 [Compound 331, N2-[4-(2,5-dihydro-1H-pyrrol-3-yl)phenyl]-N4-[2-(6-methyl-2-pyridyl)pyrimidin-4-yl]pyrimidine-2,4-diamine] | ≤ 20 nM
2 | 0.398 to 3.16 nM | Cc1cccc(-c2nccc(Nc3ccnc(Nc4ccc(S(=O)(=O)N5CCN(C6CC6)CC5)cc4)n3)n2)n1 [Compound 527, N2-[4-(4-cyclopropylpiperazin-1-yl)sulfonylphenyl]-N4-[2-(6-methyl-2-pyridyl)pyrimidin-4-yl]pyrimidine-2,4-diamine] | 25.1 to 158 nM
3 | 0.0398 to 0.316 nM | Cc1cccc(-c2nccc(Nc3ccnc(Nc4ccc(C(=O)O[C@@H]5CCNC5)nc4)n3)n2)n1 [Compound 546, [(3R)-pyrrolidin-3-yl] 5-[[4-[[2-(6-methyl-2-pyridyl)pyrimidin-4-yl]amino]pyrimidin-2-yl]amino]pyridine-2-carboxylate] | 25.1 to 158 nM
4 | 0.0398 to 0.316 nM | Cc1cccc(-c2nccc(Nc3ccnc(Nc4cccc(NC(=O)C5CCCNC5)c4)n3)n2)n1 (stereo not shown) [Compound 443, N-(3-((4-((2-(6-methylpyridin-2-yl)pyrimidin-4-yl)amino)pyrimidin-2-yl)amino)phenyl)piperidine-3-carboxamide] | ≤ 20 nM
5 | 0.398 to 3.16 nM | Cc1cccc(-c2nccc(Nc3ccnc(Nc4csc(N)c4)n3)n2)n1 [Compound 500, N2-(5-amino-3-thienyl)-N4-[2-(6-methyl-2-pyridyl)pyrimidin-4-yl]pyrimidine-2,4-diamine] | 25.1 to 158 nM
6 | 0.0398 to 0.316 nM | Cc1cccc(-c2nccc(Nc3ccnc(Nc4ccc(N5CCNCC5)c(CC(=O)OCC5CNC5)c4)n3)n2)n1 [Compound 57, azetidin-3-ylmethyl 2-[5-[[4-[[2-(6-methyl-2-pyridyl)pyrimidin-4-yl]amino]pyrimidin-2-yl]amino]-2-piperazin-1-yl-phenyl]acetate] | 200 to 1260 nM
7 | 0.0398 to 0.316 nM | Cc1cccc(-c2nccc(Nc3ccnc(Nc4ccc(C(=O)OCC56CNCC5C6)nc4)n3)n2)n1 (stereo not shown) [Compound 557, 3-azabicyclo[3.1.0]hexan-1-ylmethyl 5-[[4-[[2-(6-methyl-2-pyridyl)pyrimidin-4-yl]amino]pyrimidin-2-yl]amino]pyridine-2-carboxylate] | 200 to 1260 nM
8 | 0.0398 to 0.316 nM | Cc1cccc(-c2nccc(Nc3ccnc(Nc4cncc(CN5CC(C(=O)O[C@@H]6CCNC6)C5)c4)n3)n2)n1 [Compound 642, [(3R)-pyrrolidin-3-yl] 1-[[5-[[4-[[2-(6-methyl-2-pyridyl)pyrimidin-4-yl]amino]pyrimidin-2-yl]amino]-3-pyridyl]methyl]azetidine-3-carboxylate] | 25.1 to 158 nM
9 | 0.0398 to 0.316 nM | Cc1cccc(-c2nccc(Nc3ccnc(Nc4ccc(N5CCNCC5)c(F)c4)n3)n2)n1 [Compound 120, N2-(3-fluoro-4-piperazin-1-yl-phenyl)-N4-[2-(6-methyl-2-pyridyl)pyrimidin-4-yl]pyrimidine-2,4-diamine] | 25.1 to 158 nM
10 | 0.0398 to 0.316 nM | Cc1cccc(-c2nccc(Nc3ccnc(Nc4ccc(N5CCC(CN)CC5)cc4)n3)n2)n1 [Compound 302, N2-[4-[4-(aminomethyl)-1-piperidyl]phenyl]-N4-[2-(6-methyl-2-pyridyl)pyrimidin-4-yl]pyrimidine-2,4-diamine] | 25.1 to 158 nM
11 | 0.398 to 3.16 nM | Cc1cccc(-c2nccc(Nc3ccnc(Nc4ccc(NS(=O)(=O)N5CCN(C)CC5)cc4)n3)n2)n1 [Compound 303, 4-methyl-N-[4-[[4-[[2-(6-methyl-2-pyridyl)pyrimidin-4-yl]amino]pyrimidin-2-yl]amino]phenyl]piperazine-1-sulfonamide] | 25.1 to 158 nM
12 | 0.0398 to 0.316 nM | Cc1cccc(-c2nccc(Nc3ccnc(Nc4cccc(NC(=O)C5CCN(CCN(C)C)CC5)c4)n3)n2)n1 [Compound 134, 1-[2-(dimethylamino)ethyl]-N-[3-[[4-[[2-(6-methyl-2-pyridyl)pyrimidin-4-yl]amino]pyrimidin-2-yl]amino]phenyl]piperidine-4-carboxamide] | 25.1 to 158 nM
13 | 0.0398 to 0.316 nM | Cc1cccc(-c2nccc(Nc3ccnc(Nc4ccc(C(=O)OC[C@H]5CCNC5)nc4)n3)n2)n1 [Compound 582, [(3S)-pyrrolidin-3-yl]methyl 5-[[4-[[2-(6-methyl-2-pyridyl)pyrimidin-4-yl]amino]pyrimidin-2-yl]amino]pyridine-2-carboxylate] | 25.1 to 158 nM
14 | 0.0398 to 0.316 nM | COC(=O)[C@@H]1CN(c2ccc(Nc3nccc(Nc4ccnc(-c5cccc(C)n5)n4)n3)cc2)CCN1 [Compound 307, methyl (2S)-4-[4-[[4-[[2-(6-methyl-2-pyridyl)pyrimidin-4-yl]amino]pyrimidin-2-yl]amino]phenyl]piperazine-2-carboxylate] | 25.1 to 158 nM
15 | 0.0398 to 0.316 nM | CNC1CCN(S(=O)(=O)c2ccc(Nc3nccc(Nc4ccnc(-c5cccc(C)n5)n4)n3)cc2)CC1 [Compound 352, N2-[4-[[4-(methylamino)-1-piperidyl]sulfonyl]phenyl]-N4-[2-(6-methyl-2-pyridyl)pyrimidin-4-yl]pyrimidine-2,4-diamine] | 25.1 to 158 nM
16 | 0.0398 to 0.316 nM | Cc1cccc(-c2nccc(Nc3ccnc(Nc4ccc(NCCN5CCN(C(C)C)CC5)cc4)n3)n2)n1 [Compound 346, N2-[4-[2-(4-isopropylpiperazin-1-yl)ethylamino]phenyl]-N4-[2-(6-methyl-2-pyridyl)pyrimidin-4-yl]pyrimidine-2,4-diamine] | 25.1 to 158 nM
17 | 0.0398 to 0.316 nM | Cc1cccc(-c2nccc(Nc3ccnc(Nc4cccc(NC(=O)C5CCN(C6CCOCC6)CC5)c4)n3)n2)n1 [Compound 357, N-[3-[[4-[[2-(6-methyl-2-pyridyl)pyrimidin-4-yl]amino]pyrimidin-2-yl]amino]phenyl]-1-tetrahydropyran-4-yl-piperidine-4-carboxamide] | 25.1 to 158 nM
18 | 0.0398 to 0.316 nM | CC(=O)N1CCN(S(=O)(=O)c2ccc(Nc3nccc(Nc4ccnc(-c5cccc(C)n5)n4)n3)cc2)CC1 [Compound 12, 1-[4-[4-[[4-[[2-(6-methyl-2-pyridyl)pyrimidin-4-yl]amino]pyrimidin-2-yl]amino]phenyl]sulfonylpiperazin-1-yl]ethanone] | 25.1 to 158 nM
19 | 0.0398 to 0.316 nM | Cc1cccc(-c2nccc(Nc3ccnc(Nc4csc(C(=O)OCC5CCNCC5)c4)n3)n2)n1 [Compound 607, 4-piperidylmethyl 4-[[4-[[2-(6-methyl-2-pyridyl)pyrimidin-4-yl]amino]pyrimidin-2-yl]amino]thiophene-2-carboxylate] | 25.1 to 158 nM
20 | 0.0398 to 0.316 nM | Cc1cccc(-c2nccc(Nc3ccnc(Nc4ccc(N5CCN(C6CNC6)CC5)cc4)n3)n2)n1 [Compound 473, N2-[4-[4-(azetidin-3-yl)piperazin-1-yl]phenyl]-N4-[2-(6-methyl-2-pyridyl)pyrimidin-4-yl]pyrimidine-2,4-diamine] | 200 to 1260 nM
21 | ≤ 0.0316 nM | Cc1cccc(-c2nccc(Nc3ccnc(Nc4ccc(N5CCC(N)CC5)c(F)c4)n3)n2)n1 [Compound 343, N2-[4-(4-amino-1-piperidyl)-3-fluoro-phenyl]-N4-[2-(6-methyl-2-pyridyl)pyrimidin-4-yl]pyrimidine-2,4-diamine] | 25.1 to 158 nM
22 | ≤ 0.0316 nM | Cc1cccc(-c2nccc(Nc3ccnc(Nc4ccc(CN5CC(C)(CO)C5)cc4)n3)n2)n1 [Compound 99, [3-methyl-1-[[4-[[4-[[2-(6-methyl-2-pyridyl)pyrimidin-4-yl]amino]pyrimidin-2-yl]amino]phenyl]methyl]azetidin-3-yl]methanol] | 25.1 to 158 nM
23 | 0.0398 to 0.316 nM | CN(C)C1CCN(c2ccc(Nc3nccc(Nc4ccnc(-c5cc(Cl)c(F)cc5F)n4)n3)cc2)CC1 [Compound 246, N4-[2-(5-chloro-2,4-difluoro-phenyl)pyrimidin-4-yl]-N2-[4-[4-(dimethylamino)-1-piperidyl]phenyl]pyrimidine-2,4-diamine] | 25.1 to 158 nM
24 | 0.0398 to 0.316 nM | COC(=O)CC1CN(c2ccc(Nc3nccc(Nc4ccnc(-c5cccc(C)n5)n4)n3)cc2)CCN1 (stereo not shown) [Compound 491, methyl 2-[4-[4-[[4-[[2-(6-methyl-2-pyridyl)pyrimidin-4-yl]amino]pyrimidin-2-yl]amino]phenyl]piperazin-2-yl]acetate] | 25.1 to 158 nM
25 | 3.98 to 31.6 nM | Cc1cccc(-c2nccc(Nc3ccnc(Nc4ccc5c(c4)OCCO5)n3)n2)n1 [Compound 526, N2-(2,3-dihydro-1,4-benzodioxin-6-yl)-N4-[2-(6-methyl-2-pyridyl)pyrimidin-4-yl]pyrimidine-2,4-diamine] | 25.1 to 158 nM
26 | 0.398 to 3.16 nM | Fc1ccc(Cl)cc1-c1nccc(Nc2ccnc(Nc3ccc(NCCN4CCOCC4)cc3)n2)n1 [Compound 408, N4-[2-(5-chloro-2-fluoro-phenyl)pyrimidin-4-yl]-N2-[4-(2-morpholinoethylamino)phenyl] pyrimidine-2,4-diamine] | 25.1 to 158 nM
